Legend:
Assay in all cases: relative viability (nuclei count vs DMSO), 5 days (fraction); higher = more cells survive
[1] = compound: CC(=O)Nc1cccc(-n2c(=O)n(C3CC3)c(=O)c3c(Nc4ccc(I)cc4F)n(C)c(=O)c(C)c32)c1 [Trametinib] + COc1cc2c(Oc3ccc(NC(=O)C4(C(=O)Nc5ccc(F)cc5)CC4)cc3F)ccnc2cc1OCCCN1CCOCC1 [Foretinib] (partner 0.25 µM)
How it was run: (§1)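 Relative viability is defined as nuclei in treated wells over nuclei in vehicle wells. Duplicate plates were run and medians reported. Lung cancer cell lines in 1536-well plates were dosed by pin tool one day after seeding, with one drug or with a fixed anchor-drug dose plus five library-drug doses (not always all listed) in √10 steps, and nuclei were counted after 5 days.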

[2] = compound: CC(=O)Nc1cccc(-n2c(=O)n(C3CC3)c(=O)c3c(Nc4ccc(I)cc4F)n(C)c(=O)c(C)c32)c1 [Trametinib] + Nc1nc2[nH]cc(CCc3ccc(C(=O)N[C@@H](CCC(=O)O)C(=O)O)cc3)c2c(=O)[nH]1 [Pemetrexed] (partner 0.2 µM)
How it was run: as §1

[3] = compound: CN1C=C(C2=CC=CC=C21)/C=C\3/C4=C(C=CC=N4)NC3=O + COc1cccc2cc(-c3nc([C@H]4CC[C@H](C(=O)O)CC4)n4ncnc(N)c34)[nH]c12 [OSI-027] (partner 0.5 µM)
How it was run: as §1

[4] = compound: CN1C=C(C2=CC=CC=C21)/C=C\3/C4=C(C=CC=N4)NC3=O + N=C(N)NC(=N)NCCc1ccccc1 [Phenformin] (partner 250 µM)
How it was run: as §1

Cell Line	relative viability ([1]; first compound 0.0025 µM)	relative viability ([1]; first compound 0.007906 µM)	relative viability ([1]; first compound 0.025 µM)	relative viability ([1]; first compound 0.07906 µM)	relative viability ([1]; first compound 0.25 µM)	relative viability ([2]; first compound 0.0025 µM)	relative viability ([2]; first compound 0.007906 µM)	relative viability ([2]; first compound 0.025 µM)	relative viability ([2]; first compound 0.07906 µM)	relative viability ([2]; first compound 0.25 µM)	relative viability ([3]; first compound 0.02 µM)	relative viability ([3]; first compound 0.06325 µM)	relative viability ([3]; first compound 0.2 µM)	relative viability ([3]; first compound 0.6325 µM)	relative viability ([3]; first compound 2 µM)	relative viability ([4]; first compound 0.02 µM)	relative viability ([4]; first compound 0.06325 µM)	relative viability ([4]; first compound 0.2 µM)	relative viability ([4]; first compound 0.6325 µM)	relative viability ([4]; first compound 2 µM)
HCC-366	0.875	0.765	0.768	0.49	0.228	0.24	0.213	0.236	0.188	0.169	0.678	0.89	0.52	0.852	0.75	0.578	0.641	0.602	0.664	0.667
HCC-827	1.01	0.95	0.787	0.556	0.425	0.271	0.271	0.263	0.214	0.235	0.771	0.662		0.804	0.721	0.405	0.413		0.465	0.388
HOP-62	1.04	0.948	0.623	0.341	0.252	0.407	0.31	0.345	0.308	0.183	0.712	0.873	0.645	0.875	0.846	0.645	0.678	0.72	0.664	0.752
IA-LM	1.09	0.687	0.351	0.169	0.0888															
LC-2-ad	0.792	0.726	0.57	0.477	0.409	0.271	0.259	0.294	0.274	0.282	0.81	0.811	0.687	0.803	0.724	0.595	0.546	0.414	0.537	0.549
LCLC-97TM1	0.817	0.666	0.459	0.306	0.301	0.188	0.238	0.181	0.176	0.152	0.372	0.447	0.542	0.476	0.482	0.462	0.408	0.411	0.442	0.428
LCLC-103H	0.745	0.637	0.537	0.621	0.429	0.482	0.495	0.523	0.5	0.519	0.402	0.416	0.494	0.509	0.461	0.303	0.256	0.317	0.322	0.331
LK-2	1.07	1.19	1.11	1.2	0.859	0.226	0.305	0.213	0.184	0.102			0.184	0.195	0.211				0.56	0.546
LOU-NH91	0.909	0.805	0.733	0.757	0.549	0.403	0.414	0.418	0.374	0.382	0.728	0.688	0.696	0.63	0.7	0.727	0.624	0.623	0.66	0.645
LU99A	0.793	0.817	0.637	0.53	0.438	0.206	0.208	0.203	0.193	0.206	0.298	0.303	0.282	0.255	0.299	0.874	0.846	0.695	0.602	0.8
LXF-289	0.956	0.863	0.77	0.661	0.595	0.844	0.832	0.688	0.672	0.772	0.857	0.763	0.715	0.731	0.745	0.478	0.515	0.467	0.551	0.522
NCI-H23	0.874	0.675	0.549	0.513	0.343	0.549	0.47	0.437	0.305	0.264	0.497	0.555	0.459	0.538	0.517	0.829	0.77	0.693	0.718	0.797
NCI-H322M	0.813	0.769	0.677	0.59	0.498	0.581	0.556	0.544	0.417	0.435	0.516	0.487	0.4	0.587	0.567	0.689	0.769	0.642	0.838	0.777
NCI-H522						1.04	1.07	0.75	0.742	0.752	0.648	0.743	0.761	0.75	0.835	0.579	0.672	0.703	0.58	0.644
NCI-H727	0.455	0.269	0.359	0.32	0.238						0.57	0.553	0.408	0.657	0.58	0.414	0.448	0.442	0.586	0.528
NCI-H1299	1.07	1.2	1.01	0.794	0.481															
NCI-H1623	0.782	0.591	0.532	0.437	0.727						0.371	0.404	0.359	0.38	0.379	0.631	0.537	0.546	0.513	0.564
NCI-H1648						0.676	0.69	0.883	0.752	0.559		0.239	0.259	0.258	0.281					
NCI-H1703	0.371	0.315	0.357	0.368	0.323															
NCI-H1792						0.751	0.645	0.363	0.328	0.154	0.72	0.71	0.768		0.464	0.442	0.245		0.297	0.237
